Experimental data as given in US8546377B2 (AbbVie Inc., priority 2009, dated 2013).
Where two headings read alike, the source gives them in different places.

How the values were obtained:
5HT2B receptors = biological target: T1, 5HT2B receptors (Homo sapiens, UniProt P41595); assay: Human 5-HT2B functional assay in CHO-K1 cells (calcium flux, FLIPR); type: cell-based
T1 construct: expressed in transfected cells; host or cells: CHO-K1 cells
Procedure: (§1) (iii) Human 5-HT2C and 5-HT2B Functional Assay in CHO-K1 Cells
(§2) CHO-K1 cells over-expressing 5HT2C or 5HT2B receptors were grown in 1272 cm^2 flasks to 70-80% confluency in UltraCHO media supplemented with 1% dialyzed fetal bovine serum (FBS), 250 μg/mL zeocin, 100 U/mL penicillin/streptomycin, and 400 μg/mL geneticin. The cells were dissociated from the flasks using 0.05% trypsin, resuspended in freezing media and stored in liquid nitrogen until use. Calcium flux experiments were done using frozen cells. The cells were diluted in media containing 1% dialyzed FBS and 100 U/mL penicillin/streptomycin and plated into 384-well poly-D-Lysine coated plates (15,000 cells/well). Then the plates were incubated overnight in a cell incubator at 37° C., 5% CO2. On the next day, the growth media was replaced with media without FBS and further incubated overnight. On day three, the changes in intracellular Ca^2+ were determined using calcium sensitive fluorescent dye, Ca4 (MDS Analytical Technologies, Sunnyvale, Calif.) by loading 15 μL of diluted dye with 2.5 mM probenecid into the cells containing media and incubated at room temperature for 60 minutes in dark.
(§3) Fluorescence measurements were read at 25° C. at an excitation wavelength of 480 nm and an emission wavelength of 530 nm in FLIPR (MDS). Baseline fluorescence was measured for the first 10 seconds and then 15 μL of 4× concentrations of serotonin/test compounds was added to the cell plate. The fluorescence intensity was captured every second for the first 1 minute followed by every 5 seconds for an additional 2 minutes. The increase in fluorescent response was determined and was normalized to the response of serotonin. The concentration response of compounds was done from a starting concentration of 10 μM, 1:10 dilution across 6 wells with a final dimethyl sulfoxide concentration of 0.2% and was fitted using a 4-parameter logistic equation. The concentration at which a compound exerts half its maximal effect was named as ‘effective concentration 50’ or ‘EC50’.
(§4) Emax is the maximum functional response or efficacy expressed as a percentage relative to the effect of serotonin.

5HT2C receptors = biological target: T2, 5HT2C receptors (Homo sapiens, UniProt P28335); assay: Human 5-HT2C functional assay in CHO-K1 cells (calcium flux, FLIPR); type: cell-based; parameters: expressed in transfected cells; host or cells: CHO-K1 cells; conditions: for Emax: percentage relative to the effect of serotonin
T2 sequence (P28335 33-458): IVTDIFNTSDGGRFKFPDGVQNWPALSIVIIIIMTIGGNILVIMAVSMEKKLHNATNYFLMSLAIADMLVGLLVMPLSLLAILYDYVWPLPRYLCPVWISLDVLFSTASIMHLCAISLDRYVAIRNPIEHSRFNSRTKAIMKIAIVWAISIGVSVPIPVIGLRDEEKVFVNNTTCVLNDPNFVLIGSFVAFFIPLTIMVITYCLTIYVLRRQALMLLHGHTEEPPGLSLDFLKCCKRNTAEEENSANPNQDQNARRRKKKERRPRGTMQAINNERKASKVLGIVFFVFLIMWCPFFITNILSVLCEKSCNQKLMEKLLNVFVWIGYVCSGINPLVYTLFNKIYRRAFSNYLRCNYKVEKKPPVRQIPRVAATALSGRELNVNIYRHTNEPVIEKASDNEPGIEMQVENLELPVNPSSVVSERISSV
Procedure: as §1, §2, §3, §4

[1] = CHO-K1 cells over-expressing 5HT2B, calcium flux, read-out: EC50 (μM), 5-HT2B Agonist Activity
[2] = CHO-K1, read-out: Emax (%), 5-HT2c Agonist Activity, CHO-K1 cells
[3] = CHO-K1 cells over-expressing 5HT2C, calcium flux, read-out: EC50 (μM), 5-HT2c Agonist Activity
[4] = CHO-K1, read-out: Emax (%), 5-HT2B Agonist Activity
[5] = CHO-K1 cells, read-out: Emax (%), 5-HT2c Agonist Activity
[6] = CHO-K1 cells, percentage relative to the effect of serotonin, read-out: Emax (%), 5-HT2B Agonist Activity

T1 sequence (P41595 whole entry): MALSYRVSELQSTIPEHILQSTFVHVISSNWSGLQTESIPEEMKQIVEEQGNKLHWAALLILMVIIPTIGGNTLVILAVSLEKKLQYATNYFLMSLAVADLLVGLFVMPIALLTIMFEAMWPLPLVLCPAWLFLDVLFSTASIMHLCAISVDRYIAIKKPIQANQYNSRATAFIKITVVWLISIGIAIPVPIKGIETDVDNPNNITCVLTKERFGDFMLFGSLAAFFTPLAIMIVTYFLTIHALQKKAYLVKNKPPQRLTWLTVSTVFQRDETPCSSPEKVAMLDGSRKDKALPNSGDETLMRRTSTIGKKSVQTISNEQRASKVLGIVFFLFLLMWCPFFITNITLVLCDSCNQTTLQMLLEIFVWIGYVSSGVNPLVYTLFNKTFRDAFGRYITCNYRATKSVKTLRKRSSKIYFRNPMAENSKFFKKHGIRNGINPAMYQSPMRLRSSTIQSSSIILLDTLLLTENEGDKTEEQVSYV

Structure (SMILES)	EC50 (5HT2B receptors; [1])	Emax (5HT2C receptors; [2])	EC50 (5HT2C receptors; [3])	EC50 (5HT2B receptors)	Emax (5HT2B receptors; [4])	EC50 (5HT2C receptors)	Emax (5HT2C receptors; [5])	Emax (5HT2B receptors; [6])
O=C1NC[C@@H]2CNCC[C@@H]2c2ccccc21 (relative stereo) [Example 180, cis-1,2,3,4,4a,5,6,11b-octahydro-7H-pyrido[3,4-d][2]benzazepin-7-one]	> 10 µM	> 120%	0.2 µM					
C[C@@H]1C[C@H]2CNCCN2c2ccccc2O1 (single isomer, unassigned) [Example 252]		105%		0.06 µM	40%	0.006 µM		
C[C@H]1C[C@H]2CNCCN2c2ccccc2O1 (single isomer, unassigned) [Example 253]		100%		> 10 µM		0.09 µM		
Cc1ccc2c(c1)NC(=O)CC1CNCCN21 (centres unmarked) [Example 49, 9-methyl-1,2,3,4,4a,5-hexahydropyrazino[1,2-a][1,5]benzodiazepin-6(7H)-one]		100%		> 10 µM		0.06 µM		
CCOC(=O)c1ccc2c(c1)N1CCNCC1CC(=O)N2 (centres unmarked) [Example 50, ethyl 6-oxo-1,2,3,4,4a,5,6,7-octahydropyrazino[1,2-a][1,5]-benzodiazepine-10-carboxylate]	> 10 µM		0.2 µM				80%	
O=C1CC2CNCCN2c2ccc(Cl)cc2N1 (centres unmarked) [Example 51, 9-chloro-1,2,3,4,4a,5-hexahydropyrazino[1,2-a][1,5]benzodiazepin-6(7H)-one]		90%		> 10 µM		0.07 µM		
O=C1CC2CNCCN2c2cc(C3CC3)ccc2N1 (centres unmarked) [Example 52, 10-cyclopropyl-1,2,3,4,4a,5-hexahydropyrazino[1,2-a][1,5]benzodiazepin-6(7H)-one]	> 10 µM		0.05 µM				> 80%	
Cc1cccc2c1N1CCNCC1CC(=O)N2 (centres unmarked) [Example 53, 11-methyl-1,2,3,4,4a,5-hexahydropyrazino[1,2-a][1,5]benzodiazepin-6(7H)-one]		> 120%		3 µM	60%	0.006 µM		
Brc1ccc2c(c1)NCC[C@H]1CNCCN21 [Example 54, (4aS)-9-bromo-1,2,3,4,4a,5,6,7-octahydropyrazino[1,2-a][1,5]benzodiazepine]		110%		> 10 µM		0.07 µM		
O=C1C[C@H]2CNCCN2c2ccc(Cl)cc2N1 [Example 55, (4aS)-9-chloro-1,2,3,4,4a,5-hexahydropyrazino[1,2-a][1,5]benzodiazepin-6(7H)-one]		> 120%		> 10 µM		0.02 µM		
O=C1CC2CNCCN2c2cc(-c3cnn(Cc4ccccc4)c3)ccc2N1 (centres unmarked) [Example 56, 10-(1-benzyl-1H-pyrazol-4-yl)-1,2,3,4,4a,5-hexahydropyrazino[1,2-a][1,5]benzodiazepin-6(7H)-one]	> 10 µM		1 µM				110%	
O=C1CC2CNCCN2c2cc(-c3ccc4ccccc4c3)ccc2N1 (centres unmarked) [Example 57, 10-(2-naphthyl)-1,2,3,4,4a,5-hexahydropyrazino[1,2-a][1,5]benzodiazepin-6(7H)-one]	> 10 µM		0.9 µM				100%	
COc1ccc(-c2ccc3c(c2)N2CCNCC2CC(=O)N3)cc1 (centres unmarked) [Example 58, 10-(4-methoxyphenyl)-1,2,3,4,4a,5-hexahydropyrazino[1,2-a][1,5]benzodiazepin-6(7H)-one]	> 10 µM		0.2 µM				110%	
O=C1CC2CNCCN2c2cc(-c3cccc(-c4ccccc4)c3)ccc2N1 (centres unmarked) [Example 59, 10-(biphenyl-3-yl)-1,2,3,4,4a,5-hexahydropyrazino[1,2-a][1,5]benzodiazepin-6(7H)-one]	> 10 µM		0.04 µM				> 120%	
Cn1cc(-c2ccc3c(c2)N2CCNCC2CC(=O)N3)cn1 (centres unmarked) [Example 60, 10-(1-methyl-1H-pyrazol-4-yl)-1,2,3,4,4a,5-hexahydropyrazino[1,2-a][1,5]benzodiazepin-6(7H)-one]	3 µM		0.4 µM				> 120%	50%
O=C1CC2CNCCN2c2cc(-c3cccc(F)c3)ccc2N1 (centres unmarked) [Example 61, 10-(3-fluorophenyl)-1,2,3,4,4a,5-hexahydropyrazino[1,2-a][1,5]benzodiazepin-6(7H)-one]	> 10 µM		0.1 µM				> 120%	
O=C1CC2CNCCN2c2cc(-c3cnc4ccccc4c3)ccc2N1 (centres unmarked) [Example 62, 10-(quinolin-3-yl)-1,2,3,4,4a,5-hexahydropyrazino[1,2-a][1,5]benzodiazepin-6(7H)-one]	0.9 µM		0.06 µM				> 120%	60%
COc1ccccc1-c1ccc2c(c1)N1CCNCC1CC(=O)N2 (centres unmarked) [Example 63, 10-(2-methoxyphenyl)-1,2,3,4,4a,5-hexahydropyrazino[1,2-a][1,5]benzodiazepin-6(7H)-one]	> 10 µM		0.09 µM				110%	
O=C1CC2CNCCN2c2cc(-c3ccccc3-c3ccccc3)ccc2N1 (centres unmarked) [Example 64, 10-(biphenyl-2-yl)-1,2,3,4,4a,5-hexahydropyrazino[1,2-a][1,5]benzodiazepin-6(7H)-one]	1 µM		0.03 µM				110%	15%
COc1cccc(-c2ccc3c(c2)N2CCNCC2CC(=O)N3)c1 (centres unmarked) [Example 65, 10-(3-methoxyphenyl)-1,2,3,4,4a,5-hexahydropyrazino[1,2-a][1,5]benzodiazepin-6(7H)-one]	> 10 µM		0.05 µM				> 120%	
O=C1CC2CNCCN2c2cc(-c3csc4ccccc34)ccc2N1 (centres unmarked) [Example 66, 10-(1-benzothiophen-3-yl)-1,2,3,4,4a,5-hexahydropyrazino[1,2-a][1,5]benzodiazepin-6(7H)-one]	> 10 µM		0.09 µM				100%	
O=C1CC2CNCCN2c2cc(-c3cccc4ccccc34)ccc2N1 (centres unmarked) [Example 67, 10-(1-naphthyl)-1,2,3,4,4a,5-hexahydropyrazino[1,2-a][1,5]benzodiazepin-6(7H)-one]	> 10 µM		0.2 µM				110%	
O=C1CC2CNCCN2c2cc(-c3cccc4[nH]ccc34)ccc2N1 (centres unmarked) [Example 68, 10-(1H-indol-4-yl)-1,2,3,4,4a,5-hexahydropyrazino[1,2-a][1,5]benzodiazepin-6(7H)-one]	> 10 µM		0.09 µM				> 120%	
O=C1CC2CNCCN2c2cc(-c3ccoc3)ccc2N1 (centres unmarked) [Example 69, 10-(3-furyl)-1,2,3,4,4a,5-hexahydropyrazino[1,2-a][1,5]benzodiazepin-6(7H)-one]	0.09 µM		0.02 µM				110%	80%
O=C1CC2CNCCN2c2cc(-c3ccccc3F)ccc2N1 (centres unmarked) [Example 70, 10-(2-fluorophenyl)-1,2,3,4,4a,5-hexahydropyrazino[1,2-a][1,5]benzodiazepin-6(7H)-one]	> 10 µM		0.06 µM				> 120%	
O=C1CC2CNCCN2c2cc(/C=C/c3ccccc3F)ccc2N1 (centres unmarked) [Example 141, 10-[(E)-2-(2-fluorophenyl)vinyl]-1,2,3,4,4a,5-hexahydropyrazino[1,2-a][1,5]benzodiazepin-6(7H)-one]			0.004 µM				88%	
